Blank lines part the entries; values can stand above or below the compound they belong to.
What was measured:
JAK3 = molecular target: T1, JAK3 (Homo sapiens, UniProt P52333); experiment: Omnia assay for potency against JAK3; format: biochemical; conditions: read-out: JAK3 Inhibition
T1 sequence (P52333 1-1124): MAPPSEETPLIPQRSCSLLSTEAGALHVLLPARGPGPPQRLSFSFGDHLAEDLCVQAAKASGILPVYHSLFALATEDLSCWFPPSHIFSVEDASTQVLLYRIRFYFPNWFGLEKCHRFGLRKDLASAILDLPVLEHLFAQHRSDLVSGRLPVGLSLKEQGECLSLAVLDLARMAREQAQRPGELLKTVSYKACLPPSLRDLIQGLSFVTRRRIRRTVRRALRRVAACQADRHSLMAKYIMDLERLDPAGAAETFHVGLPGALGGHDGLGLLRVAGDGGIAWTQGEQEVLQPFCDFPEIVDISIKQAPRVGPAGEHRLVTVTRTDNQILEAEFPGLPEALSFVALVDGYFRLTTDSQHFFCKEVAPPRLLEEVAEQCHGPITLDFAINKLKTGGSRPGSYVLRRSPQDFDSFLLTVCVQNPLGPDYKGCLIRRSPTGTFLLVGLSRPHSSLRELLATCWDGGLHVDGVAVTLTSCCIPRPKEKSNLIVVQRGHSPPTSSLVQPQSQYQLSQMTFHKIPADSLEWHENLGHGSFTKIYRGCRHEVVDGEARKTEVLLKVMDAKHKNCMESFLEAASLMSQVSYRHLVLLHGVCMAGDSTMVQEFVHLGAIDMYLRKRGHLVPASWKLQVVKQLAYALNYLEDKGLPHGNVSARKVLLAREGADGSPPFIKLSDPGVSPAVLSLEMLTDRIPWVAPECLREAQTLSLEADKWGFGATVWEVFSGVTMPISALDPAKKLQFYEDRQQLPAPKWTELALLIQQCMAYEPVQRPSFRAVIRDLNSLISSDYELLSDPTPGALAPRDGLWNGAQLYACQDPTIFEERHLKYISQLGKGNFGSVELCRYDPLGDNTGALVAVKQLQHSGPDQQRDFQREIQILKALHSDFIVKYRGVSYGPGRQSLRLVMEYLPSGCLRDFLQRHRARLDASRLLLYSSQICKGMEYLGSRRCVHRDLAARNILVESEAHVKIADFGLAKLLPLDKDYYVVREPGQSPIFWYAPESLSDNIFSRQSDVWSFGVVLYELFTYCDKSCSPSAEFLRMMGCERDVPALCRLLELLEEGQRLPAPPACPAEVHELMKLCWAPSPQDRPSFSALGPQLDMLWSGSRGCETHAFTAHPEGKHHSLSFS
In short: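 Continuous-read Omnia kinase assay with 5 nM JAK3, 5 μM ATP (near apparent Km) and 5 μM Y12-Sox peptide in Tris pH 7.5/MgCl2 buffer; enzyme pre-incubated with compound 30 min at 27 °C. Fluorescence (ex360/em485) read over 60 min; initial velocities fitted against inhibitor concentration to give IC50.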

EGFR (WT) = molecular target: T2, EGFR (WT) (Homo sapiens, UniProt P00533); experiment: Omnia continuous-read kinase assay, EGFR (WT); format: biochemical; conditions: read-out: EGFR inhibtion
T2 construct: purchased Invitrogen PV3872
In short: (§1)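 Enzyme pre-incubated 30 min at 27 °C with compound, then ATP/Y12-Sox peptide added; fluorescence (ex360/em485) read continuously 60 min in 20 mM Tris pH 7.5, 5 mM MgCl2, 0.2 mM DTT. WT: 5 nM enzyme, […]; T790M/L858R: 3 nM enzyme, […]. IC50 from initial velocities, variable-slope fit.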

BTK = BTK (Homo sapiens, UniProt Q06187); experiment: Omnia assay for potency against BTK; format: biochemical; conditions: read-out: BTK Inhibition
Sequence of BTK (Q06187 whole entry): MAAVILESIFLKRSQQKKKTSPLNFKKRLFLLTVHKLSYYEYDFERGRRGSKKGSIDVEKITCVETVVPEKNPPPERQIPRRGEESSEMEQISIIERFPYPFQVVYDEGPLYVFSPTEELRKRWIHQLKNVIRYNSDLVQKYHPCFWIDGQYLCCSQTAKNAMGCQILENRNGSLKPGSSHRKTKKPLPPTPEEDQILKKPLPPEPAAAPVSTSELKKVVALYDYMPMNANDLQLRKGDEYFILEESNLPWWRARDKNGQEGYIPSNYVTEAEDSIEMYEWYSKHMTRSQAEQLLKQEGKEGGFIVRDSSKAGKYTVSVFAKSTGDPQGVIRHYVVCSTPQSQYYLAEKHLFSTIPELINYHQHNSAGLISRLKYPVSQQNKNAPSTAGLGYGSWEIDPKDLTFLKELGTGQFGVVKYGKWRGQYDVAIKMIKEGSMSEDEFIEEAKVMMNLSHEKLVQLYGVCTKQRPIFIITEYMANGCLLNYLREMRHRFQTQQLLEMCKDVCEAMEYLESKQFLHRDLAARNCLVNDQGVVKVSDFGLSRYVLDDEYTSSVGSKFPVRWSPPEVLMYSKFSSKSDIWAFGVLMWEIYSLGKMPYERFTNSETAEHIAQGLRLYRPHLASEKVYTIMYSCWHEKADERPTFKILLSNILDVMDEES
In short: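 BTK (5 nM) was pre-incubated 30 min at 27° C with serially diluted compounds in Tris pH 7.5/MgCl2 buffer, then started with […] and Y5-Sox peptide 10 mM (ATP KMapp ~36 mM). Fluorescence (ex360/em485) was read continuously over 60 min. IC50 came from initial velocities using a variable-slope fit.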

ErbB1 = ErbB1 (Homo sapiens, UniProt P00533); experiment: Z'-LYTE biochemical assay, ErbB1 kinase inhibition; conditions: for inhibition at 0.01 µM: @ 10 nM; for inhibition at 0.1 µM: @ 100 nM
Sequence of ErbB1 (P00533 25-1210): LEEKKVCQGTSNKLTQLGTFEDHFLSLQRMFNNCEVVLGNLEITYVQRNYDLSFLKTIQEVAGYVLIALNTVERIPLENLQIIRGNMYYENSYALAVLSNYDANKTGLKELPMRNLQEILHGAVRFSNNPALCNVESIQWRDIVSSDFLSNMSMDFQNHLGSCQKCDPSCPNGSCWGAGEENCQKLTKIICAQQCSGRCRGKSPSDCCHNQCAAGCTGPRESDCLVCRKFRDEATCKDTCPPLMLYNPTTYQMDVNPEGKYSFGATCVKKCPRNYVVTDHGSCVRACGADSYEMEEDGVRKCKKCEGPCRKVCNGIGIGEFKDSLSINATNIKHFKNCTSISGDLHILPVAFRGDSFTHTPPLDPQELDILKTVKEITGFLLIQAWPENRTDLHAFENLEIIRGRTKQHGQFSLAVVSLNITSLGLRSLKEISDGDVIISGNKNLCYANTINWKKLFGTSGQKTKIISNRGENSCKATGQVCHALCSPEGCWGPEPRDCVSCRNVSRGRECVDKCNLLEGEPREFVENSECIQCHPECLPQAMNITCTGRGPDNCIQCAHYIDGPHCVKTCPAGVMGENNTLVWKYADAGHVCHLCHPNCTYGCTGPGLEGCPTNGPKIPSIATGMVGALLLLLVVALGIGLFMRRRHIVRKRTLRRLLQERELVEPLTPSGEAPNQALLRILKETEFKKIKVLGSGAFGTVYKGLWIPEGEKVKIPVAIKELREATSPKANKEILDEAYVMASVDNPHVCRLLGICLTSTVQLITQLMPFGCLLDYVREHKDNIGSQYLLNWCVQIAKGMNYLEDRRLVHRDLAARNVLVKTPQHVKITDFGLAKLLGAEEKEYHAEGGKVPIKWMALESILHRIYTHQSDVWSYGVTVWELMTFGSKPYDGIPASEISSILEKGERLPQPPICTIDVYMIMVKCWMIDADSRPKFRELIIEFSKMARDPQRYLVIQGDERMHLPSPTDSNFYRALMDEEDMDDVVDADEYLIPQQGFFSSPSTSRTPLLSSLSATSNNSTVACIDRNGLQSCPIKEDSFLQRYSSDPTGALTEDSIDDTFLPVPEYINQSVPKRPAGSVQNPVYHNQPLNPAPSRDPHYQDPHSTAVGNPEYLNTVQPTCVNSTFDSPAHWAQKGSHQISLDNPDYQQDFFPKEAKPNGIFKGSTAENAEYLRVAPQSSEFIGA
Procedure: (§2) Compounds of the present invention were assayed as inhibitors of one or more of ErbB1, ErbB2, and/or ErbB4 in a manner substantially similar to the method described by Invitrogen Corp (Invitrogen Corporation, 1600 Faraday Avenue, Carlsbad, Calif., CA; http://www.invitrogen.com/downloads/Z-LYTE_Brochure—1205.pdf) using the Z′-LYTE™ biochemical assay procedure or similar biochemical assay. The Z′-LYTE™ biochemical assay employs a fluorescence-based, coupled-enzyme format and is based on the differential sensitivity of phosphorylated and non-phosphorylated peptides to proteolytic cleavage.

ErbB4 = ErbB4 (Homo sapiens, UniProt Q15303); experiment: Z'-LYTE biochemical assay, ErbB4 kinase inhibition; conditions: @ 1 μM
Procedure: as §2

EGFR (T790M/L858R) = molecular target: T3, EGFR (T790M/L858R) (Homo sapiens, UniProt P00533, L858R/T790M); experiment: Omnia continuous-read kinase assay, EGFR (T790M/L858R); format: biochemical; conditions: read-out: EGFR (T790M/L858R) inhibiton
T3 construct: purchased BPS Bioscience 40350
T3 sequence (P00533 25-1210 T790M/L858R): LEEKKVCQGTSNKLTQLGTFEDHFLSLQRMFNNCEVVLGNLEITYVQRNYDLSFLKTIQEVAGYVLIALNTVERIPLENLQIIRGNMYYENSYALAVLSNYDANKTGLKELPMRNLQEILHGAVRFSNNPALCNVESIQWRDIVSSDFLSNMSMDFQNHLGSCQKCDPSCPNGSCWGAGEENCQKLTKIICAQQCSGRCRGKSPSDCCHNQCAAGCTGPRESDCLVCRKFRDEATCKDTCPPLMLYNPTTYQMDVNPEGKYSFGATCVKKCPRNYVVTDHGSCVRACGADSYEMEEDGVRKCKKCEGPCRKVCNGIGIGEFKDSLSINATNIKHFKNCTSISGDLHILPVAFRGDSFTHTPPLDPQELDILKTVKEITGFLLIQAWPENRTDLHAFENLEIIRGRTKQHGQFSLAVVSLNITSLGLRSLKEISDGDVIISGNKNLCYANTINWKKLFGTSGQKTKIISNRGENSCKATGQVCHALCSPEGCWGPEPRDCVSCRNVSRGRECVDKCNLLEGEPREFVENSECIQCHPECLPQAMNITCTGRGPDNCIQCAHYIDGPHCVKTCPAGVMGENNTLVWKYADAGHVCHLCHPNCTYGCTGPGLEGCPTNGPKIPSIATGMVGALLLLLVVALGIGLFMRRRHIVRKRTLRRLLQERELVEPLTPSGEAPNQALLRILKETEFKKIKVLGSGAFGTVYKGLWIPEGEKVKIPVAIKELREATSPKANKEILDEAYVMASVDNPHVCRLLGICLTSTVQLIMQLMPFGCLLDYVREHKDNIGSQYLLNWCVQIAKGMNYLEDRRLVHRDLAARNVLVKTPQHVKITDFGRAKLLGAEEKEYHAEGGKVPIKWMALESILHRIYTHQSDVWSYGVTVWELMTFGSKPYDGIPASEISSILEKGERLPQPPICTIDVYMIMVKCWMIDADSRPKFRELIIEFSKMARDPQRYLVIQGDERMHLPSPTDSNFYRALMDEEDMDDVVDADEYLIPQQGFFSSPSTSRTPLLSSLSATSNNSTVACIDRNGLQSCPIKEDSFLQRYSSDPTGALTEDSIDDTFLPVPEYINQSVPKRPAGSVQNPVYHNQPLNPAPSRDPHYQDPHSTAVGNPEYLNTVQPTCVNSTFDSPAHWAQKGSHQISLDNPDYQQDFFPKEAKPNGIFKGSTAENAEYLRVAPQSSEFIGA
In short: as §1

ErbB2 = ErbB2 (Homo sapiens, UniProt P04626); experiment: Z'-LYTE biochemical assay, ErbB2 kinase inhibition
Sequence of ErbB2 (P04626 23-1255): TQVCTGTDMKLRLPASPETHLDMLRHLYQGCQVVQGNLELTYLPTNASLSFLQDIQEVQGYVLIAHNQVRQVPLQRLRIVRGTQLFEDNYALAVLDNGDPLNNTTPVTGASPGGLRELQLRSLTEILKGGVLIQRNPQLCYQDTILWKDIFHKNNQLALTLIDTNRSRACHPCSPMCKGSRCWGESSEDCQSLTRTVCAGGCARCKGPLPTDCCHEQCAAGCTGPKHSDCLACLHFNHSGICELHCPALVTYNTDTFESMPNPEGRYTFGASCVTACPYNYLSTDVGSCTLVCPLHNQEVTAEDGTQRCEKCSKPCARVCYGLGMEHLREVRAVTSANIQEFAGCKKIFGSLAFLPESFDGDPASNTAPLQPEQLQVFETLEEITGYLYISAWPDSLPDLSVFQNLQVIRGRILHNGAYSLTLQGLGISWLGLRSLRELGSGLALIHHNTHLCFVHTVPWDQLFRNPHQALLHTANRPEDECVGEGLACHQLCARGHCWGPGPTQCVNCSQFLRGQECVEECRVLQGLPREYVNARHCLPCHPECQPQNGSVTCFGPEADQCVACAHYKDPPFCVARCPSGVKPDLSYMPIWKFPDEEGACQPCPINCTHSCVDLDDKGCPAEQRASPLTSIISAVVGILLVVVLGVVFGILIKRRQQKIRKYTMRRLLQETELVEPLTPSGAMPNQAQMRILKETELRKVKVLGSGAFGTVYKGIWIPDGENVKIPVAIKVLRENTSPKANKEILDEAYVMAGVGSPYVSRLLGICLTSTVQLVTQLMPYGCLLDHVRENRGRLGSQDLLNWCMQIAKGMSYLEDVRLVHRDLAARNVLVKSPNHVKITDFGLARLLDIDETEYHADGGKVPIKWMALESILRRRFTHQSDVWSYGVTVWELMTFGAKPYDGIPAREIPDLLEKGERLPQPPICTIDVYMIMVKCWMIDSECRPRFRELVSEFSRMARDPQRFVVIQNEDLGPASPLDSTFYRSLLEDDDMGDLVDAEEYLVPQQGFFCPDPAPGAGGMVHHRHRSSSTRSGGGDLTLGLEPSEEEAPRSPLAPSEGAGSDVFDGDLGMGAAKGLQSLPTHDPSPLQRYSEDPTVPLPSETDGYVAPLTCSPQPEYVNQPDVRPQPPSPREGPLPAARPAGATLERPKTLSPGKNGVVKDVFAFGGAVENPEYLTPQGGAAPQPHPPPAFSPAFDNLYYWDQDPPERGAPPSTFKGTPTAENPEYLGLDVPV
Procedure: as §2

[1] = tested on: BTK signaling in Ramos cells; experiment: BTK Ramos cellular assay (PLCγ2 phosphorylation); format: cell-based; conditions: Homo sapiens; Ramos cells, PLCγ2 phosphorylation; read-out: BTK Inhibition
Procedure: Compounds 1-13 and (I-52) were assayed in Ramos human Burkitt lymphoma cells. Ramos cells were grown in suspension in T225 flasks, spun down, resuspended in 50 mls serum-free media and incubated for 1 hour. Compound was added to Ramos cells in serum free media to a final concentration of 1, 0.1, 0.01, or 0.001 μM. Ramos cells were incubated with compound for 1 hour, washed again and resuspended in 100 ul serum-free media. Cells were then stimulated with 1 μg of goat F(ab′)2 Anti-Human IgM and incubated on ice for 10 minutes to activate B cell receptor signaling pathways. After 10 minutes, the cells were washed once with PBS and then lysed on ice with Invitrogen Cell Extraction buffer. 16 μg total protein from lysates was loaded on gels and blots were probed for phosphorylation of the BTK substrate PLCγ2. […] Additional dose response inhibition of BTK signaling with I-13 is depicted in FIG. 9.

ITK = molecular target: T4, ITK (Homo sapiens, UniProt Q08881); experiment: Omnia assay for potency against ITK; format: biochemical; conditions: read-out: ITK inhibition
T4 sequence (Q08881 1-620): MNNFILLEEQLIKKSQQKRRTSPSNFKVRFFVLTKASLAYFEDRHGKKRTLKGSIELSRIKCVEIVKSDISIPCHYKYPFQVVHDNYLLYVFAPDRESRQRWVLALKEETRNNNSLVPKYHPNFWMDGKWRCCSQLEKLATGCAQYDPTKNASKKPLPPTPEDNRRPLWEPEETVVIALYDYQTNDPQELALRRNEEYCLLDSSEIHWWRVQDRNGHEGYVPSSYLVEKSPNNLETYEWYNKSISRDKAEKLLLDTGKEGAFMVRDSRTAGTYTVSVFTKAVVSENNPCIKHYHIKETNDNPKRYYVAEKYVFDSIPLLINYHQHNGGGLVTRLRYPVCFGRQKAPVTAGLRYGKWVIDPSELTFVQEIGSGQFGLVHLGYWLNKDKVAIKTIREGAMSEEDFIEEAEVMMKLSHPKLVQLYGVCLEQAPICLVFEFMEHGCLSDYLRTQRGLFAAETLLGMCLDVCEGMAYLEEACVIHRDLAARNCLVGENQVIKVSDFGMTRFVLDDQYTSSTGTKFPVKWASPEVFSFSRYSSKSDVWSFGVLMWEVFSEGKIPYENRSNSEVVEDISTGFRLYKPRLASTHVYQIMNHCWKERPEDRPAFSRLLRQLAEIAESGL
Text: The protocol below describes continuous-read kinase assays to measure inherent potency of compounds against active forms of EGFR (WT) and EGFR (T790M/L858R) enzymes. The mechanics of the assay platform are best described by the vendor (Invitrogen, Carlsbad, Calif.) on their website at the following URL: http://www.invitrogen.com/content.cfm?pageid=11338 or http://www.invitrogen.com/site/us/en/home/Products-and-Services/Applications/Drug-Discovery/Target-and-Lead-Identification-and-Validation/KinaseBiology/KB-Misc/Biochemical-Assays/Omnia-Kinase-Assays.html.
Briefly, 10× stocks of EGFR-WT (PV3872) from Invitrogen and EGFR-T790M/L858R (40350) from BPS Bioscience, San Diego, Calif., 1.13×ATP (AS001A) and appropriate Tyr-Sox conjugated peptide substrates (KCZI001) were prepared in 1× kinase reaction buffer consisting of 20 mM Tris, pH 7.5, 5 mM MgCl2, 1 mM EGTA, 5 mM β-glycerophosphate, 5% glycerol (10× stock, KB002A) and 0.2 mM DTT (DS001A). 5 μL of each enzyme were pre-incubated in a Corning (#3574) 384-well, white, non-binding surface microtiter plate (Corning, NY) for 30 min. at 27° C. with a 0.5 μL volume of 50% DMSO and serially diluted compounds prepared in 50% DMSO. Kinase reactions were started with the addition of 45 μL of the ATP/Tyr-Sox peptide substrate mix and monitored every 30-90 seconds for 60 minutes at λex360/λem485 in a Synergy^4 plate reader from BioTek (Winooski, Vt.). At the conclusion of each assay, progress curves from each well were examined for linear reaction kinetics and fit statistics (R^2, 95% confidence interval, absolute sum of squares). Initial velocity (0 minutes to ˜30 minutes) from each reaction was determined from the slope of a plot of relative fluorescence units vs time (minutes) and then plotted against inhibitor concentration to estimate IC50 from log [Inhibitor] vs Response, Variable Slope model in GraphPad Prism from GraphPad Software (San Diego, Calif.).
This example describes continuous-read kinase assays to measure inherent potency of compound against active forms of ITK enzymes as described in Example 10 above except that the modified ITK-optimized reagent conditions are: • [ITK]=10 nM, [ATP]=25 μM, [Y6-Sox]=10 μM (ATP KMapp=33 μM).

SMILES: C=CC(=O)Nc1cccc(Nc2cc(Nc3cccc(C)c3)ncn2)c1 [I-4, N-{3-[6-(3-methylphenylamino)-pyrimidin-4-ylamino]phenyl}-2-propenamide]
IC50 (JAK3): ≤ 10 nM | IC50 (EGFR (WT)): ≤ 10 nM | IC50 (BTK): ≤ 10 nM | inhibition at 0.01 µM (ErbB1): 100% | inhibition at 1 µM (ErbB4): 78% | IC50 (EGFR (T790M/L858R)): 10 to 100 nM | inhibition at 1 µM (ErbB2): 86%

SMILES: C=CC(=O)Nc1cccc(Nc2cc(Nc3ccc(OCc4cccc(F)c4)c(Cl)c3)ncn2)c1 [I-6, N-{3-[6-(3-chloro-4-(3-fluorophenyl)methoxyphenylamino)-pyrimidin-4-ylamino]phenyl}-2-propenamide]
IC50 (JAK3): 1000 to 10000 nM | IC50 (EGFR (WT)): 10 to 100 nM | IC50 (BTK): 100 to 1000 nM | inhibition at 0.01 µM (ErbB1): 49% | inhibition at 0.1 µM (ErbB1): 100% | inhibition at 1 µM (ErbB4): 97% | IC50 (EGFR (T790M/L858R)): 10 to 100 nM | inhibition at 1 µM (ErbB2): 84%

SMILES: C/C=C/C(=O)Nc1cccc(Nc2cc(Nc3cccc(Br)c3)ncn2)c1 [I-8, (E)-N-(3-[6-(3-bromophenylamino)-pyrimidin-4-ylamino]-phenyl)-2-butenamide]
IC50 (JAK3): 1000 to 10000 nM | IC50 (EGFR (WT)): ≤ 10 nM | IC50 (BTK): ≥ 10000 nM | inhibition at 0.01 µM (ErbB1): 83% | inhibition at 1 µM (ErbB4): 57% | IC50 (EGFR (T790M/L858R)): 1000 to 10000 nM

SMILES: C=CC(=O)Nc1cccc(Nc2cc(Oc3cccc(C(F)(F)F)c3)ncn2)c1 [I-9]
IC50 (JAK3): 100 to 1000 nM | IC50 (EGFR (WT)): ≤ 10 nM | IC50 (BTK): 100 to 1000 nM | inhibition at 1 µM (ErbB1; @ 1 μM): 100% | inhibition at 1 µM (ErbB4): 75% | IC50 (EGFR (T790M/L858R)): 100 to 1000 nM

SMILES: C=CC(=O)Nc1cc(Nc2cc(Oc3ccc(Oc4ccccc4)cc3)ncn2)cc(C(=O)N2CCOCC2)c1 [I-100, N-(3-(morpholine-4-carbonyl)-5-(6-(4-phenoxy)pyrimidin-4-ylamino)phenyl)acrylamide]
IC50 (EGFR (WT)): ≤ 10 nM | IC50 (BTK): ≤ 10 nM | IC50 [1]: 10 to 100 nM | IC50 (ITK): ≥ 10 µM

More lines, now with the values ahead:

IC50 (JAK3): ≤ 10 nM | IC50 (EGFR (WT)): ≤ 10 nM | IC50 (BTK): 10 to 100 nM | inhibition at 0.01 µM (ErbB1): 75% | inhibition at 0.1 µM (ErbB1): 98% | inhibition at 1 µM (ErbB4): 75% | IC50 (EGFR (T790M/L858R)): ≤ 10 nM | inhibition at 0.1 µM (ErbB2; @ 100 nM): 39% | inhibition at 1 µM (ErbB2): 96%
SMILES: C=CC(=O)Nc1cccc(Nc2cc(Nc3ccc(F)c(Cl)c3)ncn2)c1 [I-2, N-{3-[6-(3-chloro-4-fluorophenylamino)-pyrimidin-4-ylamino]phenyl}-2-propenamide]

IC50 (JAK3): ≤ 10 nM | IC50 (EGFR (WT)): ≤ 10 nM | IC50 (BTK): 10 to 100 nM | inhibition at 0.01 µM (ErbB1): 56% | inhibition at 0.1 µM (ErbB1): 96% | inhibition at 1 µM (ErbB4): 95% | IC50 (EGFR (T790M/L858R)): ≤ 10 nM | inhibition at 1 µM (ErbB2): 89%
SMILES: C=CS(=O)(=O)Nc1cccc(Nc2cc(Nc3ccc(F)c(Cl)c3)ncn2)c1 [I-3, N-{3-[6-(3-chloro-4-fluorophenylamino)-pyrimidin-4-ylamino]phenyl}-ethenesulfonamide]

IC50 (JAK3): 10 to 100 nM | IC50 (EGFR (WT)): ≤ 10 nM | IC50 (BTK): 10 to 100 nM | inhibition at 1 µM (ErbB4): 94% | IC50 (EGFR (T790M/L858R)): ≤ 10 nM | inhibition at 1 µM (ErbB2): 91%
SMILES: CN(C)C/C=C/C(=O)Nc1cccc(Nc2cc(Nc3ccc(F)c(Cl)c3)ncn2)c1 [I-18, (E)-N-{3-[6-(3-chloro-4-fluorophenylamino)-pyrimidin-4-ylamino]phenyl}-4-dimethylamino-2-butenamide]

From US9296704B2, “Substituted pyrimidines as protein kinase inhibitors” (CELGENE AVILOMICS RESEARCH, INC., priority 2007, dated 2016)
